Reference: article PMC10154330, “Machine learning-driven multifunctional peptide engineering for sustained ocular drug delivery” (Nature Communications, 2023)
≈ marks a conversion by molar mass, not a printed value. Ends that are not written are not given here.

How the values were obtained:
[1] = system: intraocular pressure; experiment: IOP measurement in normotensive Dutch Belted rabbits; format: in vivo; conditions: for cumulative IOP change: Brimonidine group
Description: (§1) For the IOP measurements in normotensive rabbits, Dutch Belted rabbits (2–3 kg) were used (n = 5). IOP was measured with a hand-held rebound tonometer icareTONOVET (Vantaa, Finland) in the awake and gently restrained rabbit. Each rabbit was acclimatized to the IOP measurement procedure for at least 5 days to obtain a stable background IOP reading. A mean of three IOP measurements for an individual eye were taken every other day for 6 days (3 times in total) and used as a baseline value. For the ICM injection procedure, rabbits were anesthetized with ketamine/xylazine and received topical anesthesia with 0.5% proparacaine hydrochloride. A corneal pre-puncture was performed with a 30 G needle, followed with a single bolus ICM injection of 200 µg (mass of brimonidine) of HR97-brimonidine or brimonidine tartrate solution in 100 µL saline using a 28 G needle. After the procedure, topical bacitracin-neomycin-polymyxin ophthalmic ointment was applied to both eyes to prevent infection and dry eyes. On day 7, an ophthalmologist masked to treatment evaluate the HR97-brimonidine injected eyes with the following items: functionality of lids, lashes, conjunctiva, cornea transparency, pigmentation of corneal endothelium, depth of anterior chambers, inflammation, fibrin strands, and symmetry of the lens[113]. […] In a separate study, a corneal pre-puncture was performed with a 30 G needle, followed with a single bolus ICM injection of 200 µg (mass of brimonidine) containing a physical mixture of unconjugated HR97 and brimonidine tartrate (HR97 + brimonidine), the equivalent amount of HR97 peptide alone, or saline alone in 100 µL saline. On day 7, day 14, day 21, and day 28, an ophthalmologist masked to treatment performed the same safety evaluations described above. IOP was measured on days 2, 3, 4, 5, 6, 7, 8, 10, 12, 14, 16, 18, and 20 after the ICM injection, and change in IOP from the baseline (ΔIOP) was reported. The mean of three IOP measurements was taken for each eye by one observer, and then confirmed by a masked observer. Alternatively, a single topical eye drop (Alphagan® P 0.1%, 50 µL) was given (n = 5). The IOP were measured immediately before the topical dosing (0 h), and at 2, 4, 6 and 8 h after the eyedrop administration. For the pharmacokinetics studies, rabbits (n = 4 per group) received a single ICM injection with 200 µg (mass of brimonidine) HR97-brimonidine as described above. Rabbits were sacrificed 1, 7, 14, 28 days after the injection, and iris, aqueous, and retina were collected for measuring the brimonidine concentration.

[2] = system: biotinylated melanin nanoparticles (b-mNPs); experiment: Relative binding of drugs to b-mNPs; parameters: species or system Sepia officinalis
From the text: (§2) Supplementary Fig. 1 | Characterization of melanin nanoparticles (mNPs) and biotinylated-melanin
(§3) nanoparticles (b-mNPs). a Representative transmission electron microscopes (TEM) images of mNPs and b-
(§4) (black dots, n = 3 per drug group) and b-mNPs (gray squares, n = 3 per drug group). Data are shown as mean ±
(§5) (1 picture or pasted object on this page, not shown here)

[3] = system: melanin nanoparticles (mNPs); experiment: In vitro melanin binding assay (binding capacity and Kd, RED device, HPLC); parameters: species or system Sepia officinalis; conditions: binding capacity and dissociation constant of ocular drugs, melanin
Description: The solutions (400 µL) were then mixed thoroughly with 400 µL of 1 mg/mL mNPs in pH 6.5 PBS solution and transferred to the inner reservoir of the rapid equilibrium dialysis (RED) device inserts (8 K MWCO). The outer reservoir was filled with 800 µL of pH 6.5 PBS solution. The samples were incubated on an orbital shaker with temperature control at 37 °C and 300 rpm for 48 h (n = 3). The solutions from outer reservoir (free drug) were than collected and transferred to an autosampler vial for HPLC analysis (Prominence LC2030, Shimadzu, Columbia, MD) with photodiode-array detection (PDA) system. […] The amount of bound drug was used to calculate the binding capacity (mol drug/mg melanin) and the dissociation constant (Kd) as previously described[20],[34].

[4] = ref 3 of the peer review file, Acheampong et al. 2002; cited from earlier work
From the text: 1.5 Brimonidine is applied as eye drops three times per day. […] Why is that? What is the required free brimonidine concentration for activity?

[5] = system: melanin nanoparticles (mNPs); experiment: Relative binding of drugs to mNPs; parameters: species or system Sepia officinalis
From the text: as §2, §3, §4, §5

[6] = Brimonidine in ocular tissues after ICM injection (LC-MS/MS)
Description: as §1
Brimonidine concentrations in ocular tissues were measured by liquid chromatography-tandem mass spectrometry (LC-MS/MS) as previously described. All samples were collected in pre-weighed tubes and stored at −80 °C until processing for analysis. Tissue samples were homogenized in 100–600 μL 1 × PBS using a Bullet Blender® (Next Advance, Inc, Troy, NY, USA) before extraction. Brimonidine were extracted from 15 to 50 μL of tissue homogenates with 50 μL of acetonitrile containing 50/50/2.5 ng/mL of the internal standards. The top layer was then transferred to an autosampler vial for LC-MS/MS analysis after centrifugation. All ocular tissue samples were analyzed using a 1 × PBS standard curve for brimonidine. […] The column effluent was monitored using a 5500 mass-spectrometric detector (Sciex) using electrospray ionization operating in positive mode. The mobile phase A was water containing 0.1% formic acid and mobile phase B was acetonitrile containing 0.1% formic acid. The gradient started with mobile phase B held at 20% for 0.5 min and increased to 100% over 0.5 min; 100% mobile phase B was held for 1 min and then returned to 20% mobile phase B and allowed to equilibrate for 1 min.

[7] = system: human cathepsins B, K, L, and S; experiment: in vitro; conditions: isolated enzyme cathepsin other, pH 5.5, cathepsin cleavage assay
[8] = system: ARPE-19 cells; experiment: Cell viability assay of HR97 peptide (PrestoBlue HS); format: cell-based, human; conditions: concentrations up to 5 mg/mL, 12 h incubation, n = 5
Description: The PrestoBlue^TM HS cell viability system was used to assess cell viability. ARPE-19 cells were seeded at 0.01 × 10^6 cells/well in 96 well plates and cultured with DMEM:F12 medium containing 10% FBS according to the vendor protocol. After 7 days, 90 µL of DMEM/F12 containing 0, 1, 5, 10, or 20 mg/mL of the HR97 was added. The cells (n = 5) were then incubated for 12 h, and viability was measured by adding 10 µL of PrestoBlue^TM HS cell viability reagents at 37 °C. After 0.5, 1, 2, 3, 4 and 5 h, absorbance (570 nm and 600 nm) was measured at 37 °C and normalized according to the protocol provided by the vendor.

[9] = Ocular safety evaluation / ocular grading after ICM injection; conditions: rabbit, in vivo
Description: as §1

[10] = system: melanin-induced ARPE-19 cells; experiment: Cell-penetration (cell uptake) assay, melanin-induced ARPE-19; format: cell-based, human; conditions: C-terminal biotinylated peptide 100 µM in pH 6.5 PBS, 6 h, 37 °C, 5 PBS washes, RIPA lysis, fluorescence biotin quantitation, n = 3
Description: Three 96 well plates per ARPE19 cell type group (melanin-induced or non-melanin induced) were seeded at 0.01 × 10^6 cells/well. ARPE-19 cells were either cultured with DMEM:F12 medium containing 10% FBS according to protocol provided by the vendor (non-melanin induced) or cultured in DMEM high glucose, pyruvate media with 250 µM of ferric ammonium citrate[107] for 2 months (melanin-induced)[20]. The expression of melanin was confirmed visually with bright field microscopy and by measuring absorbance at 475 nm (>0.4 arb. units)[20]. Within each plate, 12 wells were randomly selected to quantify the cell numbers with an automated cell counter (Countess 3 Automated Cell Counter, Thermo Fisher) for normalization in the cell uptake study. […] To quantify cell-associated peptides, the cells were lysed with 100 µL of RIPA lysis buffer at 4 °C for 48 h. The concentration of intracellular biotinylated peptides was analyzed with the Pierce™ Fluorescence Biotin Quantitation Kit. The mean intracellular concentration values of the three replicates were then grouped by cell types (melanin-induced or non-melanin induced), and a two-tailed Mann–Whitney U (Wilcoxon rank-sum) test was calculated using the wilcox.test function in R. The intracellular concentration values were also plotted against experimental melanin binding. […]

[11] = system: melanin nanoparticles (mNPs); experiment: Melanin binding assay for machine learning model validation (RED device, biotin quantitation); parameters: species or system Sepia officinalis; conditions: C-terminal biotinylated peptide 10 µM with mNPs, pH 6.5 PBS, RED 8K device, 24 h, 900 rpm; unbound peptide by fluorescence biotin quantitation; n = 4
Description: The mNPs were mixed with C-terminal biotinylated peptides (10 µM) in pH 6.5 PBS solution and incubated in the rapid equilibrium dialysis (RED) 8 K device for 24 h on an orbital shaker at 900 rpm. A total of 10 µL of the solution from the rapid dialysis reservoir was collected. The concentration of unbound biotinylated peptides was analyzed with the Pierce™ Fluorescence Biotin Quantitation Kit. Four sets of melanin binding assays were performed. Melanin binding was calculated as the difference in free peptide normalized with the starting peptide concentration. Experimental melanin binding values of the 127 peptide candidates were compared with the predicted melanin binding values with the Pearson correlation. Melanin binding predictions larger than 100% were cast to 100% because this was the maximum value in the melanin binding training set.

For `Brc1c(NC2=NCCN2)ccc2nccnc12` [brimonidine], the “cumulative IOP change” value ([1]; rabbit 1, sex printed Female) was 3.583, the “cumulative IOP change” value ([1]; rabbit 2, sex printed Male) was -9.917 and the “cumulative IOP change” value ([1]; rabbit 3, sex printed Female) was 9.167. The “cumulative IOP change” value ([1]; rabbit 4, sex printed Male) was 13.75, the “cumulative IOP change” value ([1]; rabbit 5, sex printed Female) was 2.667 and the “peak ΔIOP at 2 days” value ([1]; single ICM injection, 200 µg brimonidine equivalent, n = 5) was −2.6 ± 1.65 mmHg. For the same molecule, the “time for the mean ΔIOP to return to baseline” value ([1]; single ICM injection, n = 5 per group) was 8 days, the “Relative binding of drugs to b-mNPs” value ([2]; replicate 1 of n = 3) was 84.2618 and the “Relative binding of drugs to b-mNPs” value ([2]; replicate 2 of n = 3) was 102.105. The “Relative binding of drugs to b-mNPs” value ([2]; replicate 3 of n = 3) was 167.093, the “Binding Capacity (mole/mg melanin)” value [3] was 5e-8 mole/mg melanin and the Kd [3] was 5.27 µM. The “EC50 in the aqueous humor” value [4] was 2.9 ng/mL (≈ 9.93 nM), the “Relative binding of drugs to mNPs” value ([5]; replicate 1 of n = 3) was 141.911 and the “Relative binding of drugs to mNPs” value ([5]; replicate 2 of n = 3) was 83.4707. For the same molecule, the “Relative binding of drugs to mNPs” value ([5]; replicate 3 of n = 3) was 74.618, the “brimonidine levels in eye tissues, Iris” value ([6]; 1 days, sample 1 (Male)) was 11376.8 and the “brimonidine levels in eye tissues, Iris” value ([6]; 1 days, sample 2 (Male)) was 47581.5. For the same molecule, the “brimonidine levels in eye tissues, Iris” value ([6]; 1 days, sample 3 (Female)) was 23310.4, the “brimonidine levels in eye tissues, Iris” value ([6]; 7 days, sample 1 (Female)) was 2210.2 and the “brimonidine levels in eye tissues, Iris” value ([6]; 7 days, sample 2 (Female)) was 5336.3. For the same molecule, the “brimonidine levels in eye tissues, Iris” value ([6]; 7 days, sample 3 (Male)) was 10576.6, the “brimonidine levels in eye tissues, Iris” value ([6]; 7 days, sample 4 (Male)) was 7554.5 and the “brimonidine levels in eye tissues, Iris” value ([6]; 14 days, sample 1 (Female)) was 3473.6. The “brimonidine levels in eye tissues, Iris” value ([6]; 14 days, sample 2 (Female)) was 5226.5, the “brimonidine levels in eye tissues, Iris” value ([6]; 14 days, sample 3 (Male)) was 4493.7 and the “brimonidine levels in eye tissues, Iris” value ([6]; 14 days, sample 4 (Male)) was 711.1. For the same molecule, the “brimonidine levels in eye tissues, Iris” value ([6]; 28 days, sample 1 (Male)) was 1400.2, the “brimonidine levels in eye tissues, Iris” value ([6]; 28 days, sample 2 (Male)) was 859.9 and the “brimonidine levels in eye tissues, Iris” value ([6]; 28 days, sample 3 (Female)) was 1137.6. For the same molecule, the “brimonidine levels in eye tissues, Iris” value ([6]; 28 days, sample 4 (Female)) was 522.1, the “brimonidine levels in eye tissues, Retina” value (“brimonidine levels … Retina” below) ([6]; 1 days, sample 1 (Male)) was 23.3 and the “brimonidine levels … Retina” value ([6]; 1 days, sample 2 (Male)) was 64.6. The “brimonidine levels … Retina” value ([6]; 1 days, sample 3 (Female)) was 636.9, the “brimonidine levels … Retina” value ([6]; 1 days, sample 4 (Female)) was 1138.2 and the “brimonidine levels … Retina” value ([6]; 7 days, sample 1 (Female)) was 14.2. For the same molecule, the “brimonidine levels … Retina” value ([6]; 7 days, sample 2 (Female)) was 4.9, the “brimonidine levels … Retina” value ([6]; 7 days, sample 3 (Male)) was 125.6 and the “brimonidine levels … Retina” value ([6]; 7 days, sample 4 (Male)) was 19.8. For the same molecule, the “brimonidine levels … Retina” value ([6]; 14 days, sample 1 (Female)) was 33.2, the “brimonidine levels … Retina” value ([6]; 14 days, sample 2 (Female)) was 7.4 and the “brimonidine levels … Retina” value ([6]; 14 days, sample 3 (Male)) was 43. For the same molecule, the “brimonidine levels … Retina” value ([6]; 14 days, sample 4 (Male)) was 14.8, the “brimonidine levels … Retina” value ([6]; 28 days, sample 1 (Male)) was 10.7 and the “brimonidine levels … Retina” value ([6]; 28 days, sample 2 (Male)) was 7.9. For the same molecule, the “brimonidine levels … Retina” value ([6]; 28 days, sample 3 (Female)) was 8.6 and the “brimonidine levels … Retina” value ([6]; 28 days, sample 4 (Female)) was 5.8.
In the case of FSGKRRKRKPR [HR97], the remaining at 48 h, 100 µM [7] is reported as 87.7%, the “cytotoxicity in ARPE-19 cells” value [8] is reported as “no sign of cytotoxicity” and the “Ocular grading, all 17 items (pupillary light reflex to Meibomian gland function)” value [9] is reported as “All values are zero”. The “Ocular grading, all other scores of the 17 items” value [9] was 0, the “Ocular grading: Fluorescein staining (area)” value [9] was 1 and the “Ocular grading: Fluorescein staining (severity)” value [9] was 1. For the same molecule, the “ocular toxicity, ophthalmologist evaluation” value [9] was “no ocular toxicity was observed”.
For YGRKKRRQRRR [TAT47–57], the “cell uptake (intracellular peptide concentration)” value [10] was 457.1 ± 34.2 pmol/100 K cells and the “melanin binding (bound fraction)” value [11] was 77.6 ± 1.5%.
